The record followed here is patent US10479792B2, “Compounds” (GlaxoSmithKline Intellectual Property Development Limited, priority 2015, dated 2019).

Structures are written as SMILES.

Test [1] has as its system Leishmania donovani. Put plainly: Intramacrophage Leishmania donovani assay (Assay 1), average number of amastigotes per cell (potency readout). Conditions: THP-1, 96 h, amastigotes in PMA-differentiated THP-1 macrophages, 96 h incubation, read-out: pEC50 value against Leishmania donovani (converted). The class given is cell-based. As for the experimental part: Assay 1. Intramacrophage Leishmania donovani Assay
The intramacrophage Leishmania assay was performed using a modified version of the method described in De Rycker et al. (Antimicrob Agents Chemother. 2013 July; 57(7):2913-22. Comparison of a high-throughput high-content intracellular Leishmania donovani assay with an axenic amastigote assay. De Rycker M, Hallyburton I, Thomas J, Campbell L, Wyllie S, Joshi D, Cameron S, Gilbert I H, Wyatt P G, Frearson J A, Fairlamb A H, Gray D W.). Procedure: 350 nl of compound was pre-dispensed into 384 well sterile intermediary plates. For single point screening, amphotericin B was added to all wells of column 24 as a positive control (final concentration 2 μM) and DMSO to column 23. For potency determinations, ten-point, one in three dilution curves were created with the highest concentration being 50 μM and on each plate a control curve of amphotericin B was included. Controls were as follows: columns 11 and 12: DMSO, columns 23 and 24: amphotericin B (final concentration 2 μM). To the intermediary plates, 35 μl of THP-1 media was added and plates were shaken for >5 min to ensure complete mixing. THP-1 cells (8,000 per well, 50 μl) were plated into black clear-bottom 384 well plates (Corning) in presence of 20 nM PMA. After 20 min at RT, the plates were incubated at 37° C. under 5% CO2 in a humidified incubator for 75 h. The cells were then washed with […] sterile phosphate buffered saline (PBS) supplemented with 1 mM CaCl2, 0.5 mM MgCl2, 0.1% (w/v) bovine serum albumin (PBS-A) and amastigotes were added to all wells at a multiplicity of infection of 5 (40,000 amastigotes per well). After 40 min at RT, plates were returned to the incubator. Amastigotes were incubated in the presence of THP-1 macrophages for 16 h. Any remaining extracellular amastigotes were subsequently removed with an overflow wash of 1 mL PBS-A per well (wash buffer is being aspirated from the top of the well as it is being dispensed) followed by addition of 25 μl of the compound pre-dilutions using a Fluidx Ipette-pro pipetting station. The final dilution of each compound was 200-fold. Plates were incubated for 96 h and then washed (250 μl PBS-A) and fixed (4% (v/v) formaldehyde-PBS, 30 min, RT). After fixation, the wells were washed with 250 μl PBS, stained (10 μg/mL DAPI, 0.4 μg mL-1 HCS Cellmask Deep Red in PBS+0.1% (v/v) Triton X-100, 30 min, RT) and washed with 250 μl PBS. Finally, PBS+0.05% (v/v) thimerosal was added to the wells, the plates were sealed and imaged on a high-content microscope (GE IN Cell 2000) using a 10× objective. Image analysis was carried out with GE IN Cell Analyzer 1000 Workstation using the “Multi Target Analysis” module. Settings for segmentation were as follows: nuclei: minimum area: 142.384 μm2, sensitivity: 81, method: top-hat; cells: characteristic area: 2500 μm2, sensitivity: 60, method: multiscale top-hat; organelles (amastigotes): granule size 1-3, 3 scales, sensitivity: 90, detection in entire cell. For each well, i) THP-1 cell count (cytotoxicity readout) and ii) average number of amastigotes per cell (potency readout) were calculated, both in terms of pEC50 values.

The subject of test [2] is Leishmania donovani. Put plainly: Leishmania donovani intracellular assay (Assay 5). Type of test: cell-based. As to conditions: THP-1, 96 h, eGFP amastigotes in THP-1 cells, 96 h incubation, read-out: pEC50 value against Leishmania donovani (converted). The procedure: Assay 5. Leishmania donovani Intracellular Assay
Compounds were dispensed into black 384-well assay plates (Greiner) by acoustic dispensing (LabCyte ECHO). For potency determinations, eleven-point, one in three dilution curves were generated, with a top concentration of 50 μM. THP-1 human monocytes cells were dispensed in T225 tissue culture flasks and differentiated using 30 nM of PMA, after 24 hours they were infected overnight using Leishmania donovani expressing Green Fluorescent Protein (eGFP) amastigotes in the same T225 tissue culture flasks at a multiplicity of infection of 10. Next, any remaining free amastigotes were washed away with PBS and the infected THP-1 cells were harvested by trypsinisation. The infected cells were then plated into 384-well plates containing the compounds to be tested, at 3000 cells per well in RPMI media with 2% FBS and 25 mM Sodium bicarbonate. After 96 h incubation at 37° C. in presence of 5% CO2, the plates were fixed with 4% formaldehyde for 30 minutes, washed with PBS and stained with 0.1 mg/mL of DAPI for 30 minutes and washed again with PBS. The plates were imaged on a Perkin Elmer Opera high-content imaging system using a 20× air objective with two expositions, one for DAPI stain and other for eGFP. Images were analysed using the Acapella building blocks system (Perkin Elmer). The image analysis algorithm first identified the THP-1 nuclei followed by demarcation of the cytoplasm and identification of intracellular amastigotes. This algorithm reported mean number of parasites per THP-1 cell, the percentage of infected THP-1 cells and the total number of THP-1 cells.

`O=C(Nc1ccc(F)c(-c2ccn3c(N4CCCOCC4)cnc3n2)c1)N1CCCC1` [Example 22, N-(3-(3-(1,4-oxazepan-4-yl)imidazo[1,2-a]pyrimidin-7-yl)-4-fluorophenyl)pyrrolidine-1-carboxamide]: the EC50 is 0.251 to 10 µM in the test with Leishmania donovani [1] and 0.126 to 10 µM in the test with Leishmania donovani [2].

With `O=C(Nc1ccc(F)c(-c2ccn3c(N4CCOCC4)cnc3n2)c1)N1CC(F)(F)C1` [Example 24, 3,3-difluoro-N-(4-fluoro-3-(3-morpholinoimidazo[1,2-a]pyrimidin-7-yl)phenyl)azetidine-1-carboxamide], the EC50 in the test with Leishmania donovani [1] was 0.251 to 10 µM; in the test with Leishmania donovani [2], 0.126 to 10 µM.

As for `O=C(Nc1ccc(F)c(-c2ccn3c(N4CCOCC4)cnc3n2)c1)N1CCC(F)(F)C1` [Example 25, 3,3-difluoro-N-(4-fluoro-3-(3-morpholinoimidazo[1,2-a]pyrimidin-7-yl)phenyl)pyrrolidine-1-carboxamide], the EC50 in the test with Leishmania donovani [1] was 12.6 to 20 µM; with Leishmania donovani [2] it was 0.126 to 10 µM.

Take `O=C(Nc1ccc(F)c(-c2ccn3c(-c4cnccn4)cnc3n2)c1)N1CCCC1` [Example 27, N-(4-fluoro-3-(3-(pyrazin-2-yl)imidazo[1,2-a]pyrimidin-7-yl)phenyl)pyrrolidine-1-carboxamide]: the EC50 with Leishmania donovani [1] is 0.251 to 10 µM; in the test with Leishmania donovani [2] it was 0.126 to 10 µM.

As for `CC1CN(c2cnc3nc(-c4cc(NC(=O)N5CCCC5)ccc4F)ccn23)CCO1` (stereo not drawn) [Example 29, N-(4-fluoro-3-(3-(2-methylmorpholino)imidazo[1,2-a]pyrimidin-7-yl)phenyl)pyrrolidine-1-carboxamide], the EC50 in the test with Leishmania donovani [1] was 0.251 to 10 µM; with Leishmania donovani [2], 0.126 to 10 µM.

As to `C[C@@H]1CN(c2cnc3nc(-c4cc(NC(=O)N5CCCC5)ccc4F)ccn23)C[C@H](C)O1` [Example 30, N-(3-(3-((2S,6R)-2,6-dimethylmorpholino)imidazo[1,2-a]pyrimidin-7-yl)-4-fluorophenyl)pyrrolidine-1-carboxamide], the EC50 in the test on Leishmania donovani [1] is 0.251 to 10 µM; in the test on Leishmania donovani [2], 0.126 to 10 µM.

As for `CC1COCCN1c1cnc2nc(-c3cc(NC(=O)N4CCCC4)ccc3F)ccn12` (stereo not drawn) [Example 31, N-(4-fluoro-3-(3-(3-methylmorpholino)imidazo[1,2-a]pyrimidin-7-yl)phenyl)pyrrolidine-1-carboxamide], the values for the EC50 in the test on Leishmania donovani [1] and in the test with Leishmania donovani [2] were 0.251 to 10 µM and 0.126 to 10 µM, respectively.

As to `O=C(Nc1ccc(F)c(-c2ccn3c(N4CCNCC4)cnc3n2)c1)N1CCCC1` [Example 32, N-(4-fluoro-3-(3-(piperazin-1-yl)imidazo[1,2-a]pyrimidin-7-yl)phenyl)pyrrolidine-1-carboxamide], the EC50 in the test on Leishmania donovani [1] is > 50.1 µM; with Leishmania donovani [2] it was 12.6 to 39.8 µM.

Turning to `C[C@@H]1CCCN1C(=O)Nc1ccc(F)c(-c2ccn3c(N4CCOCC4)cnc3n2)c1` [Example 33, N-(4-fluoro-3-(3-morpholinoimidazo[1,2-a]pyrimidin-7-yl)phenyl)-2-methylpyrrolidine-1-carboxamide], the EC50 in the test with Leishmania donovani [1] is 0.251 to 10 µM; with Leishmania donovani [2] it was 0.126 to 10 µM.

Consider `C[C@@H]1CCN(C(=O)Nc2ccc(F)c(-c3ccn4c(N5CCOCC5)cnc4n3)c2)C1` [Example 34], for which the EC50 is 0.251 to 10 µM with Leishmania donovani [1] and 0.126 to 10 µM with Leishmania donovani [2].

As to `CC(C)(C)OC(=O)N1CCN(c2cnc3nc(-c4cc(NC(=O)N5CCCC5)ccc4F)ccn23)CC1` [Example 35, tert-butyl 4-(7-(2-fluoro-5-(pyrrolidine-1-carboxamido)phenyl)imidazo[1,2-a]pyrimidin-3-yl)piperazine-1-carboxylate], the EC50 in the test on Leishmania donovani [1] was 0.251 to 10 µM; in the test on Leishmania donovani [2] it was 0.126 to 10 µM.

On to `CN1CCN(c2cnc3nc(-c4cc(NC(=O)N5CCCC5)ccc4F)ccn23)CC1` [Example 36, N-(4-fluoro-3-(3-(4-methylpiperazin-1-yl)imidazo[1,2-a]pyrimidin-7-yl)phenyl)pyrrolidine-1-carboxamide], for which the values for the EC50 in the test with Leishmania donovani [1] and in the test on Leishmania donovani [2] were 12.6 to 20 µM and 0.126 to 10 µM, respectively.

Regarding `Cc1nc(C)c(C(=O)Nc2ccc(F)c(-c3ccn4c(N5CCOCC5)cnc4n3)c2)o1` [Example 39, N-(4-fluoro-3-(3-morpholinoimidazo[1,2-a]pyrimidin-7-yl)phenyl)-2,4-dimethyloxazole-5-carboxamide], the EC50 in the test with Leishmania donovani [1] was 0.251 to 10 µM; with Leishmania donovani [2] it was 0.126 to 10 µM.

Consider `C[C@H]1CN(c2cnc3nc(-c4cc(NC(=O)N5CCCC5)ccc4F)ccn23)CCO1` [Example 40, (S)—N-(4-fluoro-3-(3-(2-methylmorpholino)imidazo[1,2-a]pyrimidin-7-yl)phenyl)pyrrolidine-1-carboxamide], for which the EC50 with Leishmania donovani [1] was 0.251 to 10 µM; in the test on Leishmania donovani [2] it was 0.126 to 10 µM.

`CC1(C)CN(c2cnc3nc(-c4cc(NC(=O)N5CCCC5)ccc4F)ccn23)CCO1` [Example 41, N-(3-(3-(2,2-dimethylmorpholino)imidazo[1,2-a]pyrimidin-7-yl)-4-fluorophenyl)pyrrolidine-1-carboxamide]: the EC50 in the test on Leishmania donovani [1] was 0.251 to 10 µM; in the test with Leishmania donovani [2] it was 0.126 to 10 µM.

`CC1(C)COCCN1c1cnc2nc(-c3cc(NC(=O)N4CCCC4)ccc3F)ccn12` [Example 42, N-(3-(3-(3,3-dimethylmorpholino)imidazo[1,2-a]pyrimidin-7-yl)-4-fluorophenyl)pyrrolidine-1-carboxamide]: the EC50 is 0.251 to 10 µM in the test on Leishmania donovani [1] and 0.126 to 10 µM in the test with Leishmania donovani [2].

For the compound `CN1CCOCC1c1cnc2nc(-c3cc(NC(=O)N4CCCC4)ccc3F)ccn12` (stereo not drawn) [Example 43, N-(4-fluoro-3-(3-(4-methylmorpholin-3-yl)imidazo[1,2-a]pyrimidin-7-yl)phenyl)pyrrolidine-1-carboxamide], the EC50 in the test with Leishmania donovani [1] was 0.251 to 10 µM; in the test with Leishmania donovani [2], 0.126 to 10 µM.

In the case of `CC(C)(C)OC(=O)N1CCOCC1c1cnc2nc(-c3cc(NC(=O)N4CCCC4)ccc3F)ccn12` (stereo not drawn) [Example 44, tert-butyl 3-(7-(2-fluoro-5-(pyrrolidine-1-carboxamido)phenyl)imidazo[1,2-a]pyrimidin-3-yl)morpholine-4-carboxylate], the EC50 in the test on Leishmania donovani [1] was 0.251 to 10 µM; in the test on Leishmania donovani [2], 0.126 to 10 µM.

Consider `O=C(Nc1cc(-c2ccn3c(N4CCOCC4)cnc3n2)c(F)cc1F)N1CCCC1` [Example 46, N-(2,4-difluoro-5-(3-morpholinoimidazo[1,2-a]pyrimidin-7-yl)phenyl)pyrrolidine-1-carboxamide], for which the EC50 was > 50.1 µM with Leishmania donovani [1] and 0.126 to 10 µM with Leishmania donovani [2].

Regarding `COC1CCN(c2cnc3nc(-c4cc(NC(=O)N5CCCC5)ccc4F)ccn23)CC1` [Example 47, N-(4-fluoro-3-(3-(4-methoxypiperidin-1-yl)imidazo[1,2-a]pyrimidin-7-yl)phenyl)pyrrolidine-1-carboxamide], the EC50 in the test with Leishmania donovani [1] was 0.251 to 10 µM; with Leishmania donovani [2] it was 0.126 to 10 µM.

Turning to `CC(=O)N1CCN(c2cnc3nc(-c4cc(NC(=O)N5CCCC5)ccc4F)ccn23)CC1` [Example 48, N-(3-(3-(4-acetylpiperazin-1-yl)imidazo[1,2-a]pyrimidin-7-yl)-4-fluorophenyl)pyrrolidine-1-carboxamide], the values for the EC50 in the test on Leishmania donovani [1] and with Leishmania donovani [2] were > 50.1 µM and 0.126 to 10 µM, respectively.
